Results from patent US20040143461A1, “Generating, viewing, interpreting, and utilizing a quantitative database of metabolites” (Lipomics Technologies, Inc., priority 2001, published 2004).
Like-named read-outs stand apart in the source and are kept apart here.

Legend:
[1] = system: plasma lipids; experiment: Lipomic assessment of CL316,243-treated NZO mice (trial 2), targeting graph versus rosiglitazone; format: in vivo, mouse
Text: In a targeting display, quantitative metabolite data is compared from two samples that have been subjected to different treatments, for instance treatment with two different drugs or a drug and a test compound. The percentage or absolute changes (versus the standard sample) in the measured metabolites are plotted against each other on a Cartesian graph. This visual system facilitates the comparison of the global and individual metabolic effects of the two conditions being examined. If the two treatments (e.g., two drug treatments) affect the biological system in metabolically similar ways, the data points will fall along a line with a slope of 1, running through the origin (from the lower left to the upper right quadrant, in other words). Outlier data points, where one treatment or the other has a different effect on a metabolite, will lie in the upper left or lower right quadrants, and are therefore easily identified. […] The further off the “equivalent” slope a data point is, the greater the magnitude of differential effect that is being illustrated.
The metabolites found in the lower left and the upper right quadrants of the scatter plot (especially those where the X and Y values are similar) represent those likely affected by similar molecular mechanisms. […]

[2] = humans; cited from earlier work
[3] = Body weight, glycemia, insulin and hepatic steatosis in rosiglitazone-treated (NZO×NON)F1 male mice; format: in vivo, mouse
[4] = system: heart lipid metabolome
Procedure: (§1) Mouse tissue and plasma samples were a generous donation to Lipomics Technologies from Dr. Edward Leiter of the Jackson Laboratory (Bar Harbor, Me.). Samples included the plasma, heart, liver and inguinal adipose of mice treated with pharmaceuticals or their corresponding controls.
(§2) In both studies, five treated and five control mice were used. Following the treatments and the killing of the mice, tissues and plasma were taken, chilled to −80° C. and shipped to the analysis laboratory at Lipomics Technologies in a frozen state.
(§3) For the analysis of liver and heart tissues, 25 mg of tissue were placed in a ground glass homogenizer and internal standards were added. The internal standards for use in the analyses of these tissues may take many forms, but in this instance consisted of: 4.75 μg of N-pentadecenoyl-D-erythro-sphingosylphorylcholine; 74.78 μg of 1,2 diheptadecanoylphosphatidylcholine; 33.57 μg of 1,2-diheptadecenoylphosphatidylserine (for phosphatidylserine); 24.13 μg of 1,2-diheptadecenoylphosphatidylethanolamine; 13.38 μg of 1,1′,2,2′-tetraheptadecaenoyl cardiolipin (for cardiolipin); 1.12 μg of pentadecaenoic acid; 27.82 μg of triheptadecaenoic acid; 1.56 μg of cholesteryl heptadecanoate; and 27.70 μg of stigmasterol.
(§4) The solution mixture consisting of sample, fluid extractant, and internal standards was homogenized by twelve strokes with a ground-glass homogenizer. Following homogenization, 1.8 ml of 0.01 M potassium chloride was added, and the solution was vigorously mixed. The organic fraction containing the lipids and the internal standards was separated from the polar fraction of the mixture by centrifugation. The lipid extract was removed from the mixture and concentrated under a stream of nitrogen in preparation for lipid class separation.
(§5) The separation of lipid classes was performed by preparative thin-layer chromatography (TLC), essentially as previously described (Watkins et al., Lipids 36:247-254, 2001). To remove any residual metal or other damaging contaminants on the TLC plates, each plate was washed prior to use. Washing the plates is a three-step process that involves impregnating each plate with ethylenediamine tetraacetic acid (EDTA) and rinsing the plates once with methanol and once with chloroform. Each plate is first impregnated with 1 mM EDTA, pH 5.5, by ascending development using the method of Ruiz (J. Lipid Res. 38, 1482-1489, 1997). After each plate was completely developed, it was dried in air overnight. Once dry, each plate was developed in methanol, dried, and developed in chloroform in the same direction as the development with EDTA. The washed plates were then dried in air. Just prior to use, each plate was activated by heating to 110° C. for 10 minutes.
(§6) To prepare the TLC chamber for chromatography, Whatman (Clifton, N.J.) filter paper was cut into 20×80-cm strips and wrapped around the inside wall of a 30×60×10-cm glass development chamber. One hundred milliliters of the appropriate mobile phase was added to the chamber, and the chambers were sealed and allowed to equilibrate. Chambers were considered equilibrated when the solvent front had completely ascended the filter paper. The mobile phase employed for the separation of phospholipid classes (lyso-phospholipids, sphingomyelin, phosphatidylcholine, phosphatidylserine, phosphatidylethanolamine and cardiolipin) was a modification of the solvent system described by Holub and Skeaf (“Nutritional regulation of cellular phosphatidylinositol,” in Meth. Enzym., ed. Conn (Academic Press, Inc., Orlando), pp. 234-243, 1987) consisting of chloroform/methanol/acetic acid/water (100:67:7:4, by vol).
(§7) For the separation of neutral lipid classes (free fatty acids, free sterols, triacylglycerides and cholesterol esters), a solvent system consisting of petroleum ether/diethyl ether/acetic acid (80:20:1, by vol) was used (Mangold, Thin Layer Chromatography— A Laboratory Handbook (Springer-Verlag, New York), 1969).

[5] = system: liver lipid metabolome; conditions: treated mice
Procedure: as §1, §2, §3, §4, §5, §6, §7

[6] = system: inguinal adipose lipid metabolome
Procedure: as §1, §2
The lipids from plasma and tissues were extracted in the presence of authentic internal standards by the method of Folch et al. (J. Biol. Chem. 226, 497-509, 1957) by homogenization in a fluid extractant consisting of chloroform:methanol (2:1 vol:vol). Plasma (200 μl), or 10 mg inguinal adipose tissue was used for each analysis. For each sample, an appropriate mass of internal standard was added. The internal standard compounds chosen may take many forms, but in one specific example the internal standards added to each plasma sample were: 1.75 μg of heptadecanoic 1-heptadecanoyl-2-lyso-phosphatidycholine (for lysophospholipids), 2.25 micrograms of N-pentadecenoyl-D-erythro-sphingosylphorylcholine (for sphingomyelin), 39.93 micrograms of 1,2 diheptadecanoylphosphatidylcholine (for phosphatidylcholine), 0.93 micrograms of 1,2-diheptadecenoylphosphatidylethanolamine (for phosphatidylethanolamine), 2.09 micrograms of pentadecaenoic acid (for free fatty acids), 32.93 micrograms of triheptadecaenoic acid (for triacylglycerides), 27.27 micrograms of cholesteryl heptadecanoate (for cholesterol esters) and 38.03 micrograms of stigmasterol (for free sterols).
as §4, §5
To prepare the TLC chamber for chromatography, Whatman (Clifton, N.J.) filter paper was cut into 20×80-cm strips and wrapped around the inside wall of a 30×60×10-cm glass development chamber. One hundred milliliters of the appropriate mobile phase was added to the chamber, and the chambers were sealed and allowed to equilibrate. Chambers were considered equilibrated when the solvent front had completely ascended the filter paper.

[7] = amount in parentheses after the % greater
[8] = treated vs control mice, FIG. 5

Which “similarity of effect on plasma lipids to rosiglitazone” value ([1]; targeting graph FIG. 6, NZO mice, 0.001% in chow, four weeks) does the source give for C[C@H](Cc1ccc2c(c1)OC(C(=O)[O-])(C(=O)[O-])O2)NC[C@H](O)c1cccc(Cl)c1.[Na+].[Na+] [CL316,243] here?
Its value is “largely validated”.

What about the “increase in the de novo synthesis of fatty acids” value ([1]; targeting graph FIG. 6, upper left quadrant metabolites (16:1n7, 18:1n7, 20:3n9)) of the same compound?
The value was “not induced”.

For CN(CCOc1ccc(CC2SC(=O)NC2=O)cc1)c1ccccn1 (stereo not drawn) [rosiglitazone], which weight gain [2] is on record?
The weight gain was “often accompanied by weight gain”.

What about the body weight ([3]; markedly-obese (NZO×NON)F1 male mice) of the same compound?
Its body weight is “increase in body weight”.

And the hepatic steatosis ([3]; treated animals)?
The hepatic steatosis was “severe hepatic steatosis”.

What about the “14:0 fatty acid associated with heart sphingomyelin, more than the control sample” value ([4]; FIG. 5 heat map, test sample vs control sample) of the same compound?
The value was 80%.

What about the “Docosahexaenoic acid (22:6n3) in heart cardiolipin” value ([4]; treated mice, control 2,200 nmol/g) of the same compound?
Its value is 950 nmol/g.

And the “linoleic acid (18:2n6) in heart cardiolipin” value ([4]; treated mice, control 4,550 nmol/g)?
The value was 8,850 nmol/g.

What about the “mean cardiolipin content of hearts” value ([4]; treated mice, untreated 2,500 nmol/g) of the same compound?
The value was 3,000 nmol/g.

And the “average concentration of total free fatty acids in the heart” value ([4]; treated mice, untreated 5,100 nmol/g)?
The value was 2,500 nmol/g.

What about the “heart free fatty acids of the saturated n-3, n-6, and n-9 families, lower than in untreated mice” value ([4]; treated vs untreated mice, FIG. 7) of the same compound?
The value was “approximately 50%”.

And the liver sphingomyelin concentration ([5]; untreated 1,890 nmol/g)?
Its liver sphingomyelin concentration is 1,180 nmol/g.

And the Total hepatic triacylglycerides ([5]; untreated 81,300 nmol/g)?
The Total hepatic triacylglycerides was 150,400 nmol/g.

And the “docosahexaenoic acid in inguinal fat triacylglycerides, greater concentration than control” value [6, 7]?
The value was 7,000 nmol/g.

What about the “eicosapentaenoic acid in inguinal fat triacylglycerides, greater concentration than control” value [6, 7] of the same compound?
The value was 4,100 nmol/g.

What about the “a-linolenic acid in inguinal fat triacylglycerides, more than control” value ([6]; amount in parentheses after the % more) of the same compound?
Its value is 24,300 nmol/g.

What about the “concentration of total n-3 fatty acids in the inguinal fat triacylglycerides” value ([6]; treated mice) of the same compound?
The value was 71,260 nmol/g.

And the “inguinal fat triacylglyceride content” value ([6]; treated mice)?
Its value is 9,628 μmol/g.

And the “inguinal fat free fatty acids” value ([6]; treated mice, controls 9,900 nmol/g)?
The value was 13,370 nmol/g.

What about the “concentration of n-7 fatty acids in inguinal fat triacylglycerides” value ([6]; treated mice, untreated 204 μmol/g) of the same compound?
Its value is 303 µmol/g.

And the “inguinal fat free fatty acids, more than controls” value ([6]; treated vs control mice)?
The value was 35%.

And the “inguinal fat triacylglyceride content, lower than controls” value ([6]; treated vs control mice)?
The value was 5.7%.

What about the “a-linolenic acid in inguinal fat triacylglycerides, more than control” value [6, 8] of the same compound?
The value was 84%.

And the “docosahexaenoic acid in inguinal fat triacylglycerides, greater concentration than control” value [6, 8]?
Its value is 612%.

What about the “eicosapentaenoic acid in inguinal fat triacylglycerides, greater concentration than control” value [6, 8] of the same compound?
The value was 522%.

And the “total concentration of n-6 fatty acids in inguinal fat, higher than untreated” value ([6]; treated vs untreated mice)?
The value was “less than 3%”.

And the “total n-3 fatty acids in inguinal fat triacylglycerides, greater than in untreated mice” value ([6]; treated vs untreated mice)?
The value was 120%.
